Here are results for 35 compounds from US11912682B2, “Isoindolinone compounds” (Monte Rosa Therapeutics, Inc., priority 2021, dated 2024).

GSPT1, sequence (P15170 whole entry): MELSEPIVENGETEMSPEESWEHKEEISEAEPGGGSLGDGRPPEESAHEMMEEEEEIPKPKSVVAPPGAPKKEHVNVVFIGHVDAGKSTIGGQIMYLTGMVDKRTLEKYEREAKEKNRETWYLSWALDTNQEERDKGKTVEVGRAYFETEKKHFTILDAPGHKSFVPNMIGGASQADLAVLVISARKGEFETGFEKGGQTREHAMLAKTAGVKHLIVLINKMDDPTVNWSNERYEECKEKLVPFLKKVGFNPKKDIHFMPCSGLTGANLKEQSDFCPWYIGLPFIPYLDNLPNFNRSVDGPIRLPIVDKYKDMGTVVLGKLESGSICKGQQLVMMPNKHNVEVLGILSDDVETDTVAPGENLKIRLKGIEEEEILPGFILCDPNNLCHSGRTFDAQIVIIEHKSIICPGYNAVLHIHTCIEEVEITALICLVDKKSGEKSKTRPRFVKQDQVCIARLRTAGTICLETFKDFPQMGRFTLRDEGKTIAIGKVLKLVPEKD
GSPT1, sequence (Q96SW2 whole entry): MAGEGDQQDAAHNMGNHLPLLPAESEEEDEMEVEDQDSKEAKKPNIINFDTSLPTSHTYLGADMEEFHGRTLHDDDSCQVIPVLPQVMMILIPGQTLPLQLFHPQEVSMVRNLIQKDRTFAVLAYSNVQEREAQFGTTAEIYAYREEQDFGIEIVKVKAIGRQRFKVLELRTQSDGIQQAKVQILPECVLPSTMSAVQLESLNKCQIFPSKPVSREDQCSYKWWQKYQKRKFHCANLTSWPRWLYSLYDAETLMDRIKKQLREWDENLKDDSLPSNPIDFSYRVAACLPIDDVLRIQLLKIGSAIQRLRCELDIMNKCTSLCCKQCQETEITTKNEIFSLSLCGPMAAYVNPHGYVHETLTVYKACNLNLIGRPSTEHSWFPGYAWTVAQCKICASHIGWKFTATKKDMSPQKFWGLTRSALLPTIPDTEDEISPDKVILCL
GSPT1, sequence (Q16531 2-1140 partner): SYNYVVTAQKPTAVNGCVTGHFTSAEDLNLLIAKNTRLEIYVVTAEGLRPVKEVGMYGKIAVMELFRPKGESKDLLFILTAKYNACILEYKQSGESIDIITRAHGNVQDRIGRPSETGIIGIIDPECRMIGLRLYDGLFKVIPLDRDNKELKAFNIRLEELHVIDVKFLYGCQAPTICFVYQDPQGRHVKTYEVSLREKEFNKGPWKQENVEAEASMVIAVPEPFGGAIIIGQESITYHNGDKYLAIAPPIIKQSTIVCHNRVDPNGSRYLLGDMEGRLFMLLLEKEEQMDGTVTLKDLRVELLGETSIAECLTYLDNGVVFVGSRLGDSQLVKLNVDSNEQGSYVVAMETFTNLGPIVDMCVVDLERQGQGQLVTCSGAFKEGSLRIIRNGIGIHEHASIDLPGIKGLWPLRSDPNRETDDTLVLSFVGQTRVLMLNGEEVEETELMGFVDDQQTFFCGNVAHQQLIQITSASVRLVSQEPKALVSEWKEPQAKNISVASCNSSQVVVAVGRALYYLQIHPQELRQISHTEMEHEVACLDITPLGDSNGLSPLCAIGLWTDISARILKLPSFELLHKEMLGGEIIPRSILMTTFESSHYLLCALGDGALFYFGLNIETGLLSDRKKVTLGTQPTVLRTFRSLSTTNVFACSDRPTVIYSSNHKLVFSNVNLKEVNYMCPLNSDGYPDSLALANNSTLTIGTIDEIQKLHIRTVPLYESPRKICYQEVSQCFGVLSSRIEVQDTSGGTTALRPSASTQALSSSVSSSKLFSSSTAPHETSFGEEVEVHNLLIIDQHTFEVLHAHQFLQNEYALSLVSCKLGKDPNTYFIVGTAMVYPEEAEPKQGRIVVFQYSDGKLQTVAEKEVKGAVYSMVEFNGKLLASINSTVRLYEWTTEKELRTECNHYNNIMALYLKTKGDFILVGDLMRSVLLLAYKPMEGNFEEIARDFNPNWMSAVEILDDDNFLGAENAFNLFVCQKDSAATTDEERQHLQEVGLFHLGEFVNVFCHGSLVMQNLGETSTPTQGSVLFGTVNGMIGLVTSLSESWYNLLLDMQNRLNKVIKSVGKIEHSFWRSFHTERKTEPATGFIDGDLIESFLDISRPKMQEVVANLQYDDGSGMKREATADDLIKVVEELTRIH

One assay deals with GSPT1 (Homo sapiens (Human), UniProt P15170+Q96SW2). Put plainly: immunofluorescence assay for GSPT1 degradation in CAL-51 cells (Example 10). It counts as cell-based. The conditions noted are these: CAL-51 cells, 6 h; read-out: IF Class (GSPT1 degradation DC50). The procedure:
The representative compounds were tested in an immunofluorescence assay for their activity to degrade GSPT1. […] Compounds were stored at 10 mM DMSO stocks. […] Cells were subsequently rinsed with PBS and fixed in 10% Formalin solution (50 μl, Sigma HT5011)) for 20 mins at room temperature. […] Following three further PBS washes, 50 μL blocking buffer (1% BSA, Sigma A4503, in PBS) was added for 45 min for signal-to noise reduction. Primary antibody (human GSPT1, Sigma HPA052488) was diluted in blocking buffer (dil.1/300, 35 μL/well) and incubated with the cells overnight at 4° C. […] After three final PBS washes, samples were conserved in 100 μL PBS in the dark, until measurement. Image acquisition was performed on the Operetta High-Content Imager (Perkin-Elmer). […] For the determination of GSPT1 DC50 values, a custom algorithm implemented in the PerkinElmer image analysis software Harmony-Acapella® was developed. After user-defined setting of adjustment parameters, the analysis was run identically without human intervention for all image fields. DAPI staining of the nuclei was used to determine the location of cells using standard nuclei detection modules. Segmentation artifacts were removed by threshold-based filters for area, roundness and intensity. The outline of the cells was determined analogously from the sum of the normalized, smoothed DAPI and Actin channel, starting from each nucleus. […] GSPT1 degradation (DC50) was calculated after normalization to controls and data import in CDD vault Database, using non-linear regression.
For the compound `O=C1CCC(N2Cc3ccc(COC(=O)Nc4cc(Cl)ccc4F)cc3C2=O)C(=O)N1` (centres unmarked) [Compound 163, (2-(2,6-dioxopiperidin-3-yl)-3-oxoisoindolin-5-yl)methyl (5-chloro-2-fluorophenyl)carbamate], the half-maximal degradation concentration (DC50) is above 300 nM.
In the case of `O=C1CCC(N2Cc3ccc(COC(=O)Nc4ccc(C5CCC5)cc4F)cc3C2=O)C(=O)N1` (centres unmarked) [Compound 164, (2-(2,6-dioxopiperidin-3-yl)-3-oxoisoindolin-5-yl)methyl (4-cyclobutyl-2-fluorophenyl)carbamate], the DC50 was above 300 nM.
As to `Cc1cc(F)c(NC(=O)OCc2ccc3c(c2)C(=O)N(C2CCC(=O)NC2=O)C3)c(F)c1` (centres unmarked) [Compound 166, (2-(2,6-dioxopiperidin-3-yl)-3-oxoisoindolin-5-yl)methyl (2,6-difluoro-4-methylphenyl)carbamate], the DC50 is above 300 nM.
Same read-out and setting: the same measure for `O=C1CCC(N2Cc3ccc(COC(=O)NC4CN(c5ccccc5)C4)cc3C2=O)C(=O)N1` (centres unmarked) [Compound 167]: above 300 nM; for `O=C1CCC(N2Cc3ccc(COC(=O)NC4CN(Cc5ccccc5)C4)cc3C2=O)C(=O)N1` (centres unmarked) [Compound 168]: above 300 nM.
Still for that read-out and setting: the same measure for `O=C1CCC(N2Cc3ccc(COC(=O)Nc4cccc(OC(F)(F)F)c4F)cc3C2=O)C(=O)N1` (centres unmarked) [Compound 169]: 30 to 300 nM; for `CC(C)(C)c1cccc(NC(=O)OCc2ccc3c(c2)C(=O)N(C2CCC(=O)NC2=O)C3)n1` (centres unmarked) [Compound 170, (2-(2,6-dioxopiperidin-3-yl)-3-oxoisoindolin-5-yl)methyl (6-(tert-butyl)pyridin-2-yl)carbamate]: 30 to 300 nM.
On the same count and under the same terms, the same measure for `O=C1CCC(N2Cc3ccc(COC(=O)Nc4cccc5c4OCC5)cc3C2=O)C(=O)N1` (centres unmarked) [Compound 173]: above 300 nM; for `O=C1CCC(N2Cc3ccc(COC(=O)NC45CC(c6ccccc6F)(C4)C5)cc3C2=O)C(=O)N1` (centres unmarked) [Compound 174, (2-(2,6-dioxopiperidin-3-yl)-3-oxoisoindolin-5-yl)methyl (3-(2-fluorophenyl)bicyclo[1.1.1]pentan-1-yl) carbamate]: below 30 nM; for `Cc1ccc(NC(=O)OCc2ccc3c(c2)C(=O)N(C2CCC(=O)NC2=O)C3)c(F)c1Cl` (centres unmarked) [Compound 179, (2-(2,6-dioxopiperidin-3-yl)-3-oxoisoindolin-5-yl) methyl (3-chloro-2-fluoro-4-methylphenyl)carbamate]: below 30 nM.
For the compound `Cc1cc2c(c(NC(=O)OCc3ccc4c(c3)C(=O)N(C3CCC(=O)NC3=O)C4)c1)OCC2` (centres unmarked) [Compound 182], the DC50 is above 300 nM.
`Cc1ccc(NC(=O)OCc2ccc3c(c2)C(=O)N(C2CCC(=O)NC2=O)C3)nc1Cl` (centres unmarked) [Compound 183, (2-(2,6-dioxopiperidin-3-yl)-3-oxoisoindolin-5-yl)methyl (6-chloro-5-methylpyridin-2-yl)carbamate]: the half-maximal degradation concentration (DC50) was 30 to 300 nM.
The same measure, in the same setting: the same measure for `CC(C)(C)[C@H]1C[C@@H](NC(=O)OCc2ccc3c(c2)C(=O)N(C2CCC(=O)NC2=O)C3)C1` (stereo partly drawn) [Compound 184, cis-(2-(2,6-dioxopiperidin-3-yl)-3-oxoisoindolin-5-yl)methyl ((1s,3s)-3-(tert-butyl)cyclobutyl)carbamate]: above 300 nM; for `CC(C)(C)[C@H]1C[C@H](NC(=O)OCc2ccc3c(c2)C(=O)N(C2CCC(=O)NC2=O)C3)C1` (stereo partly drawn) [Compound 185, trans-(2-(2,6-dioxopiperidin-3-yl)-3-oxoisoindolin-5-yl)methyl ((1s,3s)-3-(tert-butyl)cyclobutyl)carbamate]: above 300 nM; for `Cc1cc(NC(=O)OCc2ccc3c(c2)C(=O)N(C2CCC(=O)NC2=O)C3)cc(C#N)c1C` (centres unmarked) [Compound 186]: below 30 nM.
Same read-out and setting: the same measure for `O=C1CCC(N2Cc3ccc(COC(=O)Nc4cc(Cl)cc5c4OCC5)cc3C2=O)C(=O)N1` (centres unmarked) [Compound 189]: 30 to 300 nM.
On to `O=C1CCC(N2Cc3ccc(COC(=O)NC45CC(F)(C4)C5)cc3C2=O)C(=O)N1` (centres unmarked) [Compound 190], for which the DC50 was above 300 nM.
On the same count and under the same terms, the same measure for `O=C1CCC(N2Cc3ccc(COC(=O)Nc4ccc(F)c(OC(F)F)c4F)cc3C2=O)C(=O)N1` (centres unmarked) [Compound 191, (2-(2,6-dioxopiperidin-3-yl)-3-oxoisoindolin-5-yl)methyl (3-(difluoromethoxy)-2,4-difluorophenyl) carbamate]: 30 to 300 nM; for `C[C@@H]1CCCN1c1ccc(NC(=O)OCc2ccc3c(c2)C(=O)N(C2CCC(=O)NC2=O)C3)nc1` (some centres unmarked) [Compound 192]: 30 to 300 nM; for `O=C1CCC(N2Cc3ccc(COC(=O)NC45CC(C4)C5)cc3C2=O)C(=O)N1` (centres unmarked) [Compound 193, (2-(2,6-dioxopiperidin-3-yl)-3-oxoisoindolin-5-yl)methyl bicyclo[1.1.1]pentan-1-ylcarbamate]: above 300 nM.
With `Cc1cc(NC(=O)OCc2ccc3c(c2)C(=O)N(C2CCC(=O)NC2=O)C3)ncc1N1CCCC1` (centres unmarked) [Compound 194, (2-(2,6-dioxopiperidin-3-yl)-3-oxoisoindolin-5-yl)methyl (4-methyl-5-(pyrrolidin-1-yl)pyridin-2-yl) carbamate], the DC50 was above 300 nM.
Still for that read-out and setting: the same measure for `CC(C)(O)c1ccc(NC(=O)OCc2ccc3c(c2)C(=O)N(C2CCC(=O)NC2=O)C3)cc1` (centres unmarked) [Compound 195, (2-(2,6-dioxopiperidin-3-yl)-3-oxoisoindolin-5-yl)methyl (4-(2-hydroxypropan-2-yl)phenyl)carbamate]: above 300 nM; for `Cc1cc(F)c(NC(=O)OCc2ccc3c(c2)C(=O)N(C2CCC(=O)NC2=O)C3)cc1Br` (centres unmarked) [Compound 197, (2-(2,6-dioxopiperidin-3-yl)-3-oxoisoindolin-5-yl)methyl (5-bromo-2-fluoro-4-methylphenyl)carbamate]: 30 to 300 nM.
Same read-out and setting: the same measure for `O=C1CCC(N2Cc3ccc(COC(=O)NC45CC(N6CCCCC6)(C4)C5)cc3C2=O)C(=O)N1` (centres unmarked) [Compound 198]: above 300 nM.
`CC(C)(O)c1ccc(NC(=O)OCc2ccc3c(c2)C(=O)N(C2CCC(=O)NC2=O)C3)cn1` (centres unmarked) [Compound 199, (2-(2,6-dioxopiperidin-3-yl)-3-oxoisoindolin-5-yl)methyl (6-(2-hydroxypropan-2-yl)pyridin-3-yl)carbamate]: the half-maximal degradation concentration (DC50) is above 300 nM.
On to `O=C1CCC(N2Cc3ccc(COC(=O)Nc4cc(OC(F)(F)F)c(F)cc4F)cc3C2=O)C(=O)N1` (centres unmarked) [Compound 200, (2-(2,6-dioxopiperidin-3-yl)-3-oxoisoindolin-5-yl)methyl (2,4-difluoro-5-(trifluoromethoxy)phenyl)carbamate], for which the 50% degradation concentration (DC50) was in the range of 30 to 300 nM.
For `Cc1cc(F)c(NC(=O)OCc2ccc3c(c2)C(=O)N(C2CCC(=O)NC2=O)C3)cc1OC(F)F` (centres unmarked) [Compound 201, (2-(2,6-dioxopiperidin-3-yl)-3-oxoisoindolin-5-yl) methyl (5-(difluoromethoxy)-2-fluoro-4-methylphenyl)carbamate], the 50% degradation concentration (DC50) was 30 to 300 nM.
Still for that read-out and setting: the same measure for `O=C1CCC(N2Cc3ccc(COC(=O)NC45CC(CF)(C4)C5)cc3C2=O)C(=O)N1` (centres unmarked) [Compound 202, (2-(2,6-dioxopiperidin-3-yl)-3-oxoisoindolin-5-yl)methyl (3-(fluoromethyl)bicyclo[1.1.1]pentan-1-yl) carbamate]: above 300 nM; for `COC(=O)C12CC(NC(=O)OCc3ccc4c(c3)C(=O)N(C3CCC(=O)NC3=O)C4)(C1)C2` (centres unmarked) [Compound 203, methyl 3-((((2-(2,6-dioxopiperidin-3-yl)-3-oxoisoindolin-5-yl)methoxy)carbonyl)amino)bicyclo[1.1.1]pentane-1-carboxylate]: above 300 nM.
Still for that read-out and setting: the same measure for `Cc1cc(F)c(NC(=O)OCc2ccc3c(c2)C(=O)N(C2CCC(=O)NC2=O)C3)cc1OC(F)(F)F` (centres unmarked) [Compound 204, (2-(2,6-dioxopiperidin-3-yl)-3-oxoisoindolin-5-yl) methyl (2-fluoro-4-methyl-5-(trifluoromethoxy)phenyl)carbamate]: 30 to 300 nM; for `O=C1CCC(N2Cc3ccc(COC(=O)Nc4cc(F)c(OC(F)F)c(F)c4)cc3C2=O)C(=O)N1` (centres unmarked) [Compound 206, (2-(2,6-dioxopiperidin-3-yl)-3-oxoisoindolin-5-yl) methyl (4-(difluoromethoxy)-3,5-difluorophenyl)carbamate]: 30 to 300 nM; for `O=C1CCC(N2Cc3ccc(COC(=O)Nc4cc(C5CC5)ccc4F)cc3C2=O)C(=O)N1` (centres unmarked) [Compound 207, (2-(2,6-dioxopiperidin-3-yl)-3-oxoisoindolin-5-yl)methyl (5-cyclopropyl-2-fluorophenyl) carbamate]: 30 to 300 nM.
The same measure, in the same setting: the same measure for `Cc1cc(F)c(NC(=O)OCc2ccc3c(c2)C(=O)N(C2CCC(=O)NC2=O)C3)cc1C` (centres unmarked) [Compound 208, (2-(2,6-dioxopiperidin-3-yl)-3-oxoisoindolin-5-yl)methyl (2-fluoro-4,5-dimethylphenyl)carbamate]: above 300 nM.
Turning to `O=C1CCC(N2Cc3ccc(COC(=O)Nc4ccc(C(O)C(F)(F)F)cc4)cc3C2=O)C(=O)N1` (centres unmarked) [Compound 209, (2-(2,6-dioxopiperidin-3-yl)-3-oxoisoindolin-5-yl)methyl (4-(2,2,2-trifluoro-1-hydroxyethyl)phenyl) carbamate], the DC50 is above 300 nM.

The assay is the same for the next values; noted with them: read-out: IF Class (GSPT1 degradation DC50).
For the compound `Cc1cc(NC(=O)OCc2ccc3c(c2)C(=O)N(C2CCC(=O)NC2=O)C3)cc(Cl)c1C#N` (centres unmarked) [Compound 177, (2-(2,6-diox opiperidin-3-yl)-3-oxoisoindolin-5-yl)methyl(3-chloro-4-cyano-5-methylphenyl)carbamate], the DC50 fell in the range of 30 to 300 nM.
